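Each compound was tested at five concentrations against cells in 96-well plates for 48 hours. GI50 marks 50% less growth.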 The source made the active and inactive calls. Cut-off read from the data, not from the text of the source: active = GI50 up to about 1.1 µM and inactive = higher.
How the values were obtained:
Assay in all cases: NCI anticancer screen, dose series, 48 h
[1] = system: 786-0
[2] = system: A549
[3] = system: ACHN
[4] = system: CAKI-1
[5] = system: CCRF-CEM
[6] = system: COLO 205
[7] = system: DLD-1
[8] = system: DMS-114
[9] = system: EKVX
[10] = system: HCT-116
[11] = system: HCT-15
[12] = system: HL-60
[13] = system: HOP-18
[14] = system: HOP-62
[15] = system: HOP-92
[16] = system: HT-29
[17] = system: IGROV-1
[18] = system: K562
[19] = system: KM12
[20] = system: LOX IMVI
[21] = system: LXFL 529
[22] = system: M14
[23] = system: M19-MEL
[24] = system: MOLT-4
[25] = system: Malme-3M
[26] = system: NCI-H226
[27] = system: NCI-H23
[28] = system: NCI-H460
[29] = system: NCI-H522
[30] = system: OVCAR-3
[31] = system: OVCAR-4
[32] = system: OVCAR-5
[33] = system: OVCAR-8
[34] = system: RPMI-8226
[35] = system: RXF 393
[36] = system: SF-268
[37] = system: SF-295
[38] = system: SF-539
[39] = system: SK-MEL-28
[40] = system: SK-MEL-2
[41] = system: SK-MEL-5
[42] = system: SK-OV-3
[43] = system: SN12C
[44] = system: SNB-19
[45] = system: SNB-75
[46] = system: SNB-78
[47] = system: SR
[48] = system: SW-620
[49] = system: TK-10
[50] = system: U-251
[51] = system: UACC-62
[52] = system: XF498
[53] = system: A498
[54] = system: DMS-273
[55] = system: HCC 2998
[56] = system: KM-20L2
[57] = system: UACC-257
[58] = system: UO-31

Q: With `Clc1ccc(C2SCc3nc4ccccc4n32)cc1Cl` (stereo not given) as the compound, how does the GI50 [1] read?
A: The GI50 was 13.8 µM (inactive).

Q: What about the GI50 [2] of the same compound?
A: The GI50 was 13.4 µM (inactive).

Q: And the GI50 [3]?
A: The GI50 was 13 µM (inactive).

Q: What about the GI50 [4] of the same compound?
A: Its GI50 is 14.1 µM (inactive).

Q: What about the GI50 [5] of the same compound?
A: Its GI50 is 23.7 µM (inactive).

Q: And the GI50 [6]?
A: The GI50 was 20.3 µM (inactive).

Q: What about the GI50 [7] of the same compound?
A: The GI50 was 12.6 µM (inactive).

Q: And the GI50 [8]?
A: Its GI50 is 14.8 µM (inactive).

Q: What about the GI50 [9] of the same compound?
A: Its GI50 is 14.4 µM (inactive).

Q: And the GI50 [10]?
A: The GI50 was 13.2 µM (inactive).

Q: What about the GI50 [11] of the same compound?
A: The GI50 was 13.3 µM.

Q: And the GI50 [12]?
A: Its GI50 is 5.9 µM (inactive).

Q: What about the GI50 [13] of the same compound?
A: The GI50 was < 0.01 µM (active).

Q: What about the GI50 [14] of the same compound?
A: Its GI50 is 14.5 µM (inactive).

Q: And the GI50 [15]?
A: Its GI50 is 11.2 µM (inactive).

Q: What about the GI50 [16] of the same compound?
A: The GI50 was 15.1 µM (inactive).

Q: What about the GI50 [17] of the same compound?
A: Its GI50 is 17.3 µM (inactive).

Q: What about the GI50 [18] of the same compound?
A: The GI50 was 8.34 µM (inactive).

Q: And the GI50 [19]?
A: The GI50 was 11.8 µM (inactive).

Q: What about the GI50 [20] of the same compound?
A: The GI50 was 13.1 µM (inactive).

Q: And the GI50 [21]?
A: Its GI50 is 11.8 µM (inactive).

Q: What about the GI50 [22] of the same compound?
A: The GI50 was 13.2 µM (inactive).

Q: What about the GI50 [23] of the same compound?
A: The GI50 was > 10 µM (inactive).

Q: What about the GI50 [24] of the same compound?
A: The GI50 was 17.1 µM (inactive).

Q: And the GI50 [25]?
A: Its GI50 is 18.8 µM (inactive).

Q: What about the GI50 [26] of the same compound?
A: The GI50 was 25.2 µM (inactive).

Q: What about the GI50 [27] of the same compound?
A: Its GI50 is 12.6 µM (inactive).

Q: And the GI50 [28]?
A: Its GI50 is 13.5 µM (inactive).

Q: And the GI50 [29]?
A: The GI50 was 11.5 µM (inactive).

Q: What about the GI50 [30] of the same compound?
A: Its GI50 is 10.5 µM (inactive).

Q: And the GI50 [31]?
A: The GI50 was 13.1 µM (inactive).

Q: What about the GI50 [32] of the same compound?
A: Its GI50 is 10.5 µM (inactive).

Q: And the GI50 [33]?
A: The GI50 was 13.7 µM (inactive).

Q: And the GI50 [34]?
A: The GI50 was 11.4 µM (inactive).

Q: And the GI50 [35]?
A: The GI50 was 4.2 µM (inactive).

Q: And the GI50 [36]?
A: Its GI50 is 15.9 µM (inactive).

Q: What about the GI50 [37] of the same compound?
A: Its GI50 is 11.9 µM (inactive).

Q: What about the GI50 [38] of the same compound?
A: The GI50 was 17.1 µM (inactive).

Q: What about the GI50 [39] of the same compound?
A: The GI50 was 12.5 µM (inactive).

Q: What about the GI50 [40] of the same compound?
A: Its GI50 is 16.2 µM (inactive).

Q: What about the GI50 [41] of the same compound?
A: The GI50 was 9.08 µM (inactive).

Q: And the GI50 [42]?
A: The GI50 was 21.4 µM (inactive).

Q: What about the GI50 [43] of the same compound?
A: Its GI50 is 12.6 µM (inactive).

Q: And the GI50 [44]?
A: The GI50 was 10.6 µM (inactive).

Q: And the GI50 [45]?
A: The GI50 was 3.25 µM (inactive).

Q: What about the GI50 [46] of the same compound?
A: Its GI50 is 12.3 µM (inactive).

Q: What about the GI50 [47] of the same compound?
A: Its GI50 is 13.9 µM (inactive).

Q: What about the GI50 [48] of the same compound?
A: The GI50 was 15.3 µM (inactive).

Q: And the GI50 [49]?
A: The GI50 was 13 µM (inactive).

Q: What about the GI50 [50] of the same compound?
A: The GI50 was 16 µM (inactive).

Q: What about the GI50 [51] of the same compound?
A: Its GI50 is 13.2 µM (inactive).

Q: And the GI50 [52]?
A: The GI50 was 12.1 µM (inactive).

Q: Which GI50 [1] does the source give for `Cc1ccc(NC(=O)CCC(=O)C2Cc3ccccc3C2=O)cc1C` (stereo not given) here?
A: The GI50 was > 100 µM (inactive).

Q: And the GI50 [53]?
A: Its GI50 is > 100 µM (inactive).

Q: What about the GI50 [2] of the same compound?
A: Its GI50 is > 100 µM (inactive).

Q: What about the GI50 [3] of the same compound?
A: The GI50 was > 100 µM (inactive).

Q: What about the GI50 [4] of the same compound?
A: Its GI50 is > 100 µM (inactive).

Q: And the GI50 [5]?
A: The GI50 was > 100 µM (inactive).

Q: What about the GI50 [6] of the same compound?
A: The GI50 was > 100 µM (inactive).

Q: And the GI50 [7]?
A: Its GI50 is > 100 µM (inactive).

Q: What about the GI50 [8] of the same compound?
A: The GI50 was > 100 µM (inactive).

Q: And the GI50 [54]?
A: The GI50 was > 100 µM (inactive).

Q: What about the GI50 [9] of the same compound?
A: The GI50 was > 100 µM (inactive).

Q: What about the GI50 [55] of the same compound?
A: The GI50 was > 100 µM (inactive).

Q: And the GI50 [10]?
A: The GI50 was > 100 µM (inactive).

Q: What about the GI50 [11] of the same compound?
A: The GI50 was over 100 µM.

Q: And the GI50 [12]?
A: Its GI50 is > 100 µM (inactive).

Q: What about the GI50 [13] of the same compound?
A: The GI50 was > 100 µM (inactive).

Q: And the GI50 [14]?
A: The GI50 was > 100 µM (inactive).

Q: And the GI50 [15]?
A: The GI50 was > 100 µM (inactive).

Q: And the GI50 [16]?
A: The GI50 was > 100 µM (inactive).

Q: And the GI50 [17]?
A: Its GI50 is > 100 µM (inactive).

Q: What about the GI50 [18] of the same compound?
A: The GI50 was > 100 µM (inactive).

Q: What about the GI50 [56] of the same compound?
A: The GI50 was > 100 µM (inactive).

Q: What about the GI50 [19] of the same compound?
A: The GI50 was > 100 µM (inactive).

Q: What about the GI50 [20] of the same compound?
A: Its GI50 is > 100 µM (inactive).

Q: What about the GI50 [21] of the same compound?
A: The GI50 was > 100 µM (inactive).

Q: And the GI50 [22]?
A: Its GI50 is > 100 µM (inactive).

Q: And the GI50 [23]?
A: Its GI50 is > 100 µM (inactive).

Q: What about the GI50 [24] of the same compound?
A: The GI50 was > 100 µM (inactive).

Q: What about the GI50 [25] of the same compound?
A: Its GI50 is > 100 µM (inactive).

Q: And the GI50 [26]?
A: Its GI50 is > 100 µM (inactive).

Q: And the GI50 [27]?
A: Its GI50 is > 100 µM (inactive).

Q: What about the GI50 [28] of the same compound?
A: Its GI50 is > 100 µM (inactive).

Q: What about the GI50 [29] of the same compound?
A: The GI50 was > 100 µM (inactive).

Q: What about the GI50 [30] of the same compound?
A: The GI50 was > 100 µM (inactive).

Q: And the GI50 [31]?
A: The GI50 was > 100 µM (inactive).

Q: And the GI50 [32]?
A: Its GI50 is > 100 µM (inactive).

Q: And the GI50 [33]?
A: Its GI50 is > 100 µM (inactive).

Q: And the GI50 [34]?
A: The GI50 was > 100 µM (inactive).

Q: What about the GI50 [35] of the same compound?
A: The GI50 was > 100 µM (inactive).

Q: And the GI50 [36]?
A: Its GI50 is > 100 µM (inactive).

Q: And the GI50 [37]?
A: The GI50 was > 100 µM (inactive).

Q: And the GI50 [38]?
A: Its GI50 is > 100 µM (inactive).

Q: What about the GI50 [39] of the same compound?
A: Its GI50 is > 100 µM (inactive).

Q: What about the GI50 [40] of the same compound?
A: The GI50 was > 100 µM (inactive).

Q: What about the GI50 [41] of the same compound?
A: The GI50 was > 100 µM (inactive).

Q: And the GI50 [42]?
A: Its GI50 is > 100 µM (inactive).

Q: And the GI50 [43]?
A: Its GI50 is > 100 µM (inactive).

Q: What about the GI50 [44] of the same compound?
A: Its GI50 is > 100 µM (inactive).

Q: What about the GI50 [45] of the same compound?
A: Its GI50 is > 100 µM (inactive).

Q: What about the GI50 [46] of the same compound?
A: Its GI50 is > 100 µM (inactive).

Q: And the GI50 [47]?
A: Its GI50 is > 100 µM (inactive).

Q: What about the GI50 [48] of the same compound?
A: The GI50 was > 100 µM (inactive).

Q: What about the GI50 [49] of the same compound?
A: Its GI50 is > 100 µM (inactive).

Q: And the GI50 [50]?
A: The GI50 was > 100 µM (inactive).

Q: What about the GI50 [57] of the same compound?
A: The GI50 was > 100 µM (inactive).

Q: And the GI50 [51]?
A: Its GI50 is > 100 µM (inactive).

Q: What about the GI50 [58] of the same compound?
A: Its GI50 is > 100 µM (inactive).

Q: What about the GI50 [52] of the same compound?
A: The GI50 was > 100 µM (inactive).

— ChEMBL document CHEMBL1201862, “PubChem BioAssay data set” (2004)
